# Assay results published in US9322066B2, “Predictors for cancer treatment” (priority 2011, dated 2016).
# Test system: relapsed or refractory, rituximab-naive or -sensitive follicular B-cell NHL
# Experiment: Duration of response, Vc-R vs rituximab study, by biomarker
# Type: in vivo, human
# Text: Non-Hodgkin lymphoma (NHL) encompasses several unique malignant lymphoid disease entities that vary in clinical behavior, morphologic appearance, immunologic, and molecular phenotype. […] A randomized, open-label, active-controlled, multicenter, multinational, prospective study to compare the efficacy and safety of the combination of bortezomib and rituximab (Vc-R) to single-agent rituximab in subjects who have relapsed or refractory, rituximab-naive or -sensitive follicular B-cell NHL was performed.
# Subjects were centrally randomized to Treatment Groups A (Vc-R) or B (rituximab) in a 1:1 ratio taking into account the following stratification factors: • Follicular Lymphoma International Prognostic Index (FLIPI) score (low [0 or 1 factor], intermediate [2 factors], high [≧3 factors]); • Prior rituximab therapy (yes, no); • Time since last dose of anti-lymphoma therapy (≦1 year, >1 year); • Region (United States/Canada, European Union, Rest of World).
# The following clinical endpoints were included in the analysis within each treatment group and an overall comparison was made with the biomarker-related endpoints: Progression-free survival, defined as the interval between the date of randomization and the date of progressive disease (PD) or death, whichever is first reported in the ITT population; overall survival; overall response rate (complete response [CR]+CR unconfirmed [CRu]+partial response [PR]); overall CR rate (CR+CRu); duration of response; time to next anti-lymphoma therapy; and treatment free interval.
# Comparison of the response rates between the treatment groups was conducted using the Fishers Exact Test. Duration of response, time to response, and time to clinical relapse were analyzed descriptively, where appropriate, and the biomarker subset was compared (if appropriate, determined as per the initial analysis) to the overall clinical cohort, by treatment group and overall. An exploratory estimate of the response rates in each treatment group was presented with 2-sided 95% confidence intervals. The number and percentage of subjects falling into each response category was descriptively tabulated.
# [1] = 20S % NUCLEAR STAINING: 30-50, Prior Rituximab Therapy
# [2] = 20S INTENSITY CYTOPLASMIC SIGNAL: ≦2+, Intermediate FLIPI Score
# [3] = 20S INTENSITY CYTOPLASMIC SIGNAL: ≧3+, Intermediate FLIPI Score
# [4] = 20S INTENSITY CYTOPLASMIC SIGNAL: ≧3+, No Prior Rituximab Therapy
# [5] = 20S INTENSITY CYTOPLASMIC SIGNAL: ≧3+, ≦65 years old
# [6] = BCL2/ A43G: MND, Ann Arbor Stage IV
# [7] = BCL2/ E29K: MND, Ann Arbor Stage IV
# [8] = BCL2/ P46L: MD, >1 year since last anti- lymphoma treatment
# [9] = BCL2/ P59L: MD, 1 Prior Line of Therapy
# [10] = BCL2/ P59L: MD, >1 year since last anti- lymphoma treatment
# [11] = BCL2/ P59L: MD, Prior Rituximab Therapy
# [12] = BCL2/ R106H: MND, Ann Arbor Stage IV
# [13] = CD68 OVERALL POSITIVE: 0-25, High FLIPI Score
# [14] = CD68 OVERALL POSITIVE: 0-25, ≦1 year since last anti-lymphoma treatment
# [15] = CD68 OVERALL POSITIVE: 51-75, Male
# [16] = CD68 OVERALL POSITIVE: >75, Male
# [17] = CD68 POSITIVE FOLLICULAR: 0-25, Female
# [18] = CD68 POSITIVE PERIFOLLICULAR: >75, Male
# [19] = NOTCH/ P2513L: MND, >65 years old
# [20] = NOTCH/ X28INS: MND, Ann Arbor Stage IV
# [21] = NOTCH/ X28INS: MND, ≦65 years old
# [22] = P27 % NUCLEI POSITIVE: 60-70, High FLIPI Score
# [23] = P27 % NUCLEI POSITIVE: 60-70, Male
# [24] = P65 INTENSITY CYTOPLASMIC SIGNAL: ≦1+, Ann Arbor Stage III
substance,measurement,setting,value
rituximab,Duration of response Evt/N,[1],9/13
same,Duration of response Median,[1],356
same,Duration of response Evt/N,[2],9/25
same,Duration of response Median,[2],554
same,Duration of response Evt/N,[3],17/25
same,Duration of response Median,[3],352
same,Duration of response Evt/N,[4],22/32
same,Duration of response Median,[4],427
same,Duration of response Evt/N,[5],28/39
same,Duration of response Median,[5],417
same,Duration of response Evt/N,[6],23/28
same,Duration of response Median,[6],353
same,Duration of response Evt/N,[7],21/26
same,Duration of response Median,[7],344
same,Duration of response Evt/N,"BCL2/ E29K: MND, ≦65 years old",32/49
same,Duration of response Median,"BCL2/ E29K: MND, ≦65 years old",353
same,Duration of response Evt/N,[8],5/5
same,Duration of response Median,[8],356
same,Duration of response Evt/N,[9],2/2
same,Duration of response Median,[9],345
same,Duration of response Evt/N,[10],3/4
same,Duration of response Median,[10],330
same,Duration of response Evt/N,"BCL2/ P59L: MD, No Subgroup",4/5
same,Duration of response Median,"BCL2/ P59L: MD, No Subgroup",343
same,Duration of response Evt/N,[11],3/3
same,Duration of response Median,[11],330
same,Duration of response Evt/N,"BCL2/ P59L: MD, White",4/5
same,Duration of response Median,"BCL2/ P59L: MD, White",343
same,Duration of response Evt/N,[12],21/26
same,Duration of response Median,[12],352
same,Duration of response Evt/N,[13],7/11
same,Duration of response Median,[13],423
same,Duration of response Evt/N,[14],5/7
same,Duration of response Median,[14],354
same,Duration of response Evt/N,[15],5/7
same,Duration of response Median,[15],279
same,Duration of response Evt/N,[16],3/3
same,Duration of response Median,[16],284
same,Duration of response Evt/N,[17],12/20
same,Duration of response Median,[17],354
same,Duration of response Evt/N,[18],3/3
same,Duration of response Median,[18],284
same,Duration of response Evt/N,[19],10/23
same,Duration of response Median,[19],948
same,Duration of response Evt/N,[20],26/31
same,Duration of response Median,[20],353
same,Duration of response Evt/N,[21],44/64
same,Duration of response Median,[21],369
same,Duration of response Evt/N,[22],7/9
same,Duration of response Median,[22],337
same,Duration of response Evt/N,[23],5/6
same,Duration of response Median,[23],281
same,Duration of response Evt/N,[24],2/4
same,Duration of response Median,[24],173
same,Duration of response Evt/N,"PSMB5/R24C: C/C, Ann Arbor Stage II",4/18
same,Duration of response Evt/N,"PSMB9/R60H: A/G, Male",10/11
same,Duration of response Median,"PSMB9/R60H: A/G, Male",211
